Test results taken from patent US20110152094A1, “Herbicidal compositions comprising flufenacet” (Bayer CropScience AG, priority 2009, published 2011).

Experiments:
Format in all cases: in vivo
[1] = tested on: MATCH = Matricaria chamomilla; assay: Greenhouse trial, PE application with different irrigation variations (test method 6); settings: g of AS/ha: (A) 120, (B) 1200, (A)+(B) 120 + 1200
Protocol: (§1) In the standard design of the test, seeds of various broad-leaved weed and weed grass biotypes (origins) were sown in a 8-13 cm diameter pot filled with natural soil of a standard field soil (loamy silt; non-sterile) and covered with a covering soil layer of about 1 cm. The pots were then cultivated in a greenhouse (12-16 h of light, temperature day 20-22° C., night 15-18° C.) until the time of application. The pots were treated on a laboratory track sprayer with spray liquors comprising the compositions according to the invention, mixtures of the prior art or components used individually. Application of the active compounds or active compound combinations formulated as WG, WP, EC or otherwise was carried out at the appropriate growth stages of the plants. The application rate for the spray application was 100-600 l of water/ha. After the treatment, the plants were returned to the greenhouses.
(§2) About 3 weeks after the application, the soil action or/and foliar action was assessed visually according to a scale of 0-100% in comparison to an untreated comparative group: 0%=no noticeable effect compared to the untreated comparative group; 100%=full effect compared to the untreated comparative group.
(§3) (notes: the term “seeds” also includes vegetative propagation forms such as, for example, rhizome pieces; abbreviations used: h light=hours of illumination, g of AS/ha=gram of active substance per hectare, l/ha=liter per hectare, S=sensitive, R=resistant) • 1. Pre-emergence action against weeds: seeds of various broad-leaved weed and weed grass biotypes (origins) were sown in a 8-13 cm diameter pot filled with natural soil of a standard field soil (loamy silt; non-sterile) and covered with a covering soil layer of about 1 cm. The pots were then cultivated in a greenhouse (12-16 h of light, temperature day 20-22° C., night 15-18° C.) until the time of application. The pots were treated at the BBCH stage 00-10 of the seeds/plants on a laboratory track sprayer with spray liquors comprising the compositions according to the invention, mixtures or components used individually, as WG, WP, EC or other formulations. The application rate for the spray application was 100-600 l of water/ha. After the treatment, the plants were returned to the greenhouses and, when required, treated with fertilizer and watered. • 2. Post-emergence action against weeds: seeds of various broad-leaved weed and weed grass biotypes (origins) were sown in a 8-13 cm diameter pot filled with natural soil of a standard field soil (loamy silt; non-sterile) and covered with a covering soil layer of about 1 cm. The pots were then cultivated in a greenhouse (12-16 h of light, temperature day 20-22° C., night 15-18° C.) until the time of application. The pots were treated at various BBCH stages between 11-25 of the seeds/plants, i.e. generally between two to three weeks after the start of the cultivation, on a laboratory track sprayer with spray liquors comprising the compositions according to the invention, mixtures or components used individually, as WG, WP, EC or other formulations. The application rate for the spray application was 100-600 l of water/ha. After the treatment, the plants were returned to the greenhouses and, when required, treated with fertilizer and watered. • 3. Selective pre-emergence action: seeds of various crop species (origins) were sown in a 8-13 cm diameter pot filled with natural soil of a standard field soil (loamy silt; non-sterile) and covered with a covering soil layer of about 1 cm. The pots were then cultivated in a greenhouse (12-16 h of light, temperature day 20-22° C., night 15-18° C.) until the time of application. The pots were treated at the BBCH stage 00-10 of the seeds/plants on a laboratory track sprayer with spray liquors comprising the compositions according to the invention, mixtures or components used individually, as WG, WP, EC or other formulations. The application rate for the spray application was 100-600 l of water/ha. […]

AVEFA = Avena fatua = assay: as above; settings: g of AS/ha: (A) 120, (B) 1200, (A)+(B) 120 + 1200
Protocol: as §1, §2, §3

[2] = tested on: TRZAW = Triticum aestivum, winter wheat; assay: as above; settings: g of AS/ha: (A) 120, (B) 1200, (A)+(B) 120 + 1200
Protocol: as §1, §2, §3

STEME = Stellaria media = assay: Greenhouse trial, PE application at different sowing depths (test method 9); settings: g of AS/ha: (A) 120, (B) 1200, (A)+(B) 120 + 1200
Protocol: as §1, §2, §3

LOLPE = Lolium perenne = assay: as above; settings: g of AS/ha: (A) 120, (B) 1200, (A)+(B) 120 + 1200
Protocol: as §1, §2, §3

[3] = tested on: HORVW = Hordeum vulgare, winter barley; assay: as above; settings: g of AS/ha: (A) 120, (B) 1200, (A)+(B) 120 + 1200
Protocol: as §1, §2, §3

[4] = tested on: TRZAW = Triticum aestivum, winter wheat; assay: as above; settings: g of AS/ha: (A) 120, (B) 1200, (A)+(B) 120 + 1200
Protocol: as §1, §2, §3

[5] = tested on: ALOMY resistant (Alopecurus myosuroides); assay: Greenhouse trial, PE application on resistant biotypes (test method 8); settings: resistant biotype, g of AS/ha: (A) 90, (B) 1200, (A)+(B) 90 + 1200
Protocol: as §1, §2, §3

[6] = tested on: ALOMY sensitive (Alopecurus myosuroides); assay: as above; settings: sensitive biotype, g of AS/ha: (A) 90, (B) 1200, (A)+(B) 90 + 1200
Protocol: as §1, §2, §3

[7] = tested on: MATCH resistant (Matricaria chamomilla); assay: as above; settings: resistant biotype, g of AS/ha: (A) 90, (B) 1200, (A)+(B) 90 + 1200, (C) 10
Protocol: as §1, §2, §3

`CCC(CC)Nc1c([N+](=O)[O-])cc(C)c(C)c1[N+](=O)[O-]` [(B) pendimethalin, N-(1-ethylpropyl)-3,4-dimethyl-2,6-dinitrobenzenamine] was tested, and the “activity MATCH (visual assessment, scale 0-100% vs untreated)” value ([1]; irrigation from above) was 30%, the “activity MATCH (visual assessment, scale 0-100% vs untreated)” value ([1]; irrigation from below) was 18% and the “activity AVEFA (visual assessment, scale 0-100% vs untreated)” value (AVEFA = Avena fatua; irrigation from above) was 5%. For the same compound, the “activity AVEFA (visual assessment, scale 0-100% vs untreated)” value (AVEFA = Avena fatua; irrigation from below) was 10%, the “activity on crop plant TRZAW (visual assessment, scale 0-100% vs untreated)” value ([2]; irrigation from above) was 20% and the “activity on crop plant TRZAW (visual assessment, scale 0-100% vs untreated)” value ([2]; irrigation from below) was 5%. For the same compound, the “activity STEME, sowing depth 5 mm (visual assessment, scale 0-100% vs untreated)” value (STEME = Stellaria media; sowing depth 5 mm) was 50%, the “activity STEME, sowing depth 20 mm (visual assessment, scale 0-100% vs untreated)” value (STEME = Stellaria media; sowing depth 20 mm) was 70% and the “activity LOLPE, sowing depth 5 mm (visual assessment, scale 0-100% vs untreated)” value (LOLPE = Lolium perenne; sowing depth 5 mm) was 30%. For the same compound, the “activity LOLPE, sowing depth 20 mm (visual assessment, scale 0-100% vs untreated)” value (LOLPE = Lolium perenne; sowing depth 20 mm) was 10%, the “activity on crop plant HORVW, sowing depth 5 mm (visual assessment, scale 0-100% vs untreated)” value ([3]; sowing depth 5 mm) was 25% and the “activity on crop plant HORVW, sowing depth 20 mm (visual assessment, scale 0-100% vs untreated)” value ([3]; sowing depth 20 mm) was 0%. The “activity on crop plant TRZAW, sowing depth 5 mm (visual assessment, scale 0-100% vs untreated)” value ([4]; sowing depth 5 mm) was 45%, the “activity on crop plant TRZAW, sowing depth 20 mm (visual assessment, scale 0-100% vs untreated)” value ([4]; sowing depth 20 mm) was 10% and the “activity ALOMY resistant (visual assessment, scale 0-100% vs untreated)” value [5] was 40%. For the same compound, the “activity ALOMY sensitive (visual assessment, scale 0-100% vs untreated)” value [6] was 30% and the “activity MATCH resistant (visual assessment, scale 0-100% vs untreated)” value [7] was 10%.
